Test results reported in patent US20210032369A1, “METHODS RELATED TO PARKINSON?S DISEASE AND SYNUCLEINOPATHIES” (The Scripps Research Institute, priority 2018, published 2021).

Tested on: Pα-syn* aggregates in PFF-seeded primary hippocampal neurons
Experiment: Autophagy modulation assay: Pα-syn* aggregates in PFF-seeded primary hippocampal neurons
Type: cell-based, mouse
Conditions: treated from day 3.5 to day 6 post-PFF exposure, rapamycin 300 nM, chloroquine 1 μM, 3-Methyladenine 1 mM, 200 cells counted blinded, versus vehicle
Description: Primary neuronal cultures and PFFs seeding: Primary neuronal cultures were prepared from E16-E18 C57BL/6 mouse brains (Charles River Laboratories) using standard procedures. For immunofluorescence experiments, dissociated hippocampal neurons were plated onto poly-L-lysine coated glass coverslips placed in 24-well plates, at a cell density of 125,000 cells/well. For biochemical assays, dissociated cortical neurons were plated onto poly-L-lysine-coated 6-well plates at a cell density of 1,000,000 cells/well. Neuronal cultures were seeded with PFFs at 5-6 days in vitro (DIV). […] Just before seeding, PFFs were diluted in PBS at 0.1 mg/ml, sonicated during 30 sec (0.5 sec ON, 0.5 sec OFF, power 30%), and diluted in neuronal media. Two μg/ml PFFs (final) per well were added on 24-well plates for immunofluorescence experiments, and 4 μg/ml PFFs (final) per well were added to 6-well plates for biochemical assays. In the case of control conditions, an equivalent volume of PBS was added to the neuronal cultures. Autophagy modulation assays: Dissociated hippocampal neurons were plated onto poly-L-lysine coated glass coverslips placed in 24-well plates, at a cell density of 125,000 cells/well and seeded with PFFs (or equivalent volume of PBS for the control) at 5-6 DIV. […] Thereafter, neuronal cultures were grown for an extra 2.5 days until a total of 6 days after PFF seeding, were fixed and processed for immunofluorescence. In order to assess the effect of autophagy modulation on Pα-syn* generation, a total of 200 cells per treatment were evaluated and the number of Pα-syn* aggregates per cells was counted in a blinded fashion at 100× magnification. Immunofluorescence experiments: Neurons were fixed for 30 min at room temperature with 4% (w/v) paraformaldehyde in PBS containing 4% (w/v) sucrose. Neurons were washed with PBS, permeabilized with 0.2% (v/v) Triton X-100 in PBS for 6 min, washed again in PBS and blocked for 1 hour at room temperature. […]

Row | Compound | number of Pα-syn* aggregates per cell | number of Pα-syn* aggregates per cell (listed as 3-MA)
1 | CCN(CC)CCCC(C)Nc1ccnc2cc(Cl)ccc12 (stereo not drawn) [chloroquine] | fewer | 
2 | Cn1cnc(N)c2ncnc1-2 [3-Methyladenine] | decrease | fewer
